According to patent publication US9849130B2 (KamTek, Inc., priority 2014, dated 2017):

What was measured:
[1] = tested on: Clostridium difficile (CD) strains; test: microbe, parasite or virus in culture; type: cell-based
C. perfringens MH310 = test: microbe, parasite or virus in culture; type: cell-based; details: C. perfringens MH310
Escherichia coli strains = test: MIC by microdilution in Mueller-Hinton broth against Escherichia coli strains; type: cell-based; details: for MIC: Mueller-Hinton broth
[2] = tested on: Staphylococcus aureus strains; test: MIC by microdilution in Mueller-Hinton broth against Staphylococcus aureus strains; type: cell-based
Bacteroides Strains = test: MIC by microdilution in Brucella broth against Bacteroides strains; type: cell-based, Bacteroides spp.
Fusobacterium = test: MIC by microdilution in Brucella broth against Fusobacterium; type: cell-based, Fusobacterium spp.; details: Brucella broth
Bifidobacterium strains = test: MIC by microdilution in BHI broth against Bifidobacterium strains; type: cell-based, Bifidobacterium spp.; details: BHI broth
Lactobacillus strains = test: MIC against Lactobacillus strains; type: cell-based, Lactobacillus spp.; details: broth microdilution, BHI with 0.02% Tween 80, pH 6.0
[3] = tested on: Lachnospiraceae and related bacterial strains; test: MIC against Lachnospiraceae and related bacterial strains; type: cell-based, Lachnospiraceae spp.; details: broth microdilution, brucella broth

CCN=c1cc2n(-c3ccc(Cl)cc3)c3ccccc3nc-2cc1Nc1ccc(Cl)cc1 [B746]
0.125 mg/L: MIC50 ([1]; n = 37) | MIC ([3]; Lachnospiraceae sp. HM-480) | MIC ([3]; Lachnospiraceae sp. HM-558)
16 fold: antibacterial activity against CD, fold greater than MET [1]
1 mg/L: MIC (C. perfringens MH310; BHI) | MIC (Bacteroides Strains; B. caccae HM728) | MIC (Bacteroides Strains; B. spp. HM18) | MIC (Bacteroides Strains; B. spp. HM20) | MIC (Bacteroides Strains; B. spp. HM22) | MIC (Bacteroides Strains; B. spp. HM27) | MIC (Bacteroides Strains; B. spp. HM58) | MIC (Bacteroides Strains; B. stercoris HM1036) | MIC (Bifidobacterium strains; Bifidobacterium sp. HM-30) | MIC ([3]; Clostridiales bacterium HM-182) | MIC ([3]; Peptostreptococcaceae sp. HM-766)
2 mg/L: MIC ([2]; Staphylococcus aureus strain NR 10186) | MIC (Bacteroides Strains; B. eggerthii HM210) | MIC (Bacteroides Strains; B. fragilis HM710) | MIC (Bacteroides Strains; B. spp. HM19) | MIC (Bacteroides Strains; B. spp. HM23) | MIC (Bacteroides Strains; B. spp. HM28) | MIC (Fusobacterium; F. nucleatum HM-993) | MIC (Bifidobacterium strains; Bifidobacterium adolescentis HM-633) | MIC (Bifidobacterium strains; Bifidobacterium longum HM-845) | MIC (Bifidobacterium strains; Bifidobacterium longum HM-846) | MIC (Bifidobacterium strains; Bifidobacterium longum HM-847) | MIC (Bifidobacterium strains; Bifidobacterium sp. HM-868) | MIC ([3]; Lachnospiraceae sp. HM-868)
0.25 mg/L: MIC ([1]; CD strain BAA1805 (hyper-virulent strain BI/NAP1/027), BB) | MIC90 ([1]; n = 37) | MIC (Bacteroides Strains; B. ovatus HM222) | MIC ([3]; Lachnospiraceae sp. HM-161)
8 mg/L: MIC (Fusobacterium; F. nucleatum HM-994) | MIC (Fusobacterium; Fusobacterium sp. HM-556) | MIC (Fusobacterium; Fusobacterium sp. HM-871) | MIC (Fusobacterium; Fusobacterium sp. HM-875) | MIC (Lactobacillus strains; Lactobacillus crispatus HM-637)
relatively inactive: activity against E. coli (in words) (Escherichia coli strains)
0.5 mg/L: MIC (C. perfringens MH310; BB) | MIC ([3]; Eubacterium sp. HM-178) | MIC ([3]; Lachnospiraceae sp. HM-150) | MIC ([3]; Lachnospiraceae sp. HM-153) | MIC ([3]; Lachnospiraceae sp. HM-154) | MIC ([3]; Lachnospiraceae sp. HM-157)
16 mg/L: MIC ([2]; Staphylococcus aureus strain NR 10198) | MIC (Fusobacterium; F. nucleatum HM-75) | MIC (Fusobacterium; F. nucleatum HM-992) | MIC (Fusobacterium; F. nucleatum HM-995) | MIC (Fusobacterium; F. nucleatum HM-997) | MIC (Fusobacterium; Fusobacterium sp. HM-874) | MIC (Lactobacillus strains; Lactobacillus gasseri HM-104) | MIC (Lactobacillus strains; Lactobacillus sp. HM-478)
≦0.031-0.5 μg/ml: MIC Range ([1]; n = 37)
0.062 mg/L: MIC ([3]; Clostridiales bacterium HM-84)
8 fold: antibacterial activity against CD, fold greater than VAN [1]
32 mg/L: MIC (Fusobacterium; F. nucleatum HM-996) | MIC (Bifidobacterium strains; Bifidobacterium breve HM-856) | MIC (Lactobacillus strains; Lactobacillus jhonsonii HM-643) | MIC (Lactobacillus strains; Lactobacillus reuteri HM-102)
>32 mg/L: MIC (Escherichia coli strains; Escherichia coli strain NR 6) | MIC (Escherichia coli strains; Escherichia coli strain NR 8) | MIC (Escherichia coli strains; Escherichia coli strain NR 96) | MIC (Escherichia coli strains; Escherichia coli strain NR 104) | MIC (Escherichia coli strains; Escherichia coli strain NR 17626) | MIC (Escherichia coli strains; Escherichia coli strain NR 17627) | MIC (Escherichia coli strains; Escherichia coli strain NR 17633) | MIC (Escherichia coli strains; Escherichia coli strain NR 17647) | MIC (Escherichia coli strains; Escherichia coli strain NR 17650) | MIC (Escherichia coli strains; Escherichia coli strain NR 17661) | MIC (Fusobacterium; F. nucleatum HM-260) | MIC (Fusobacterium; Fusobacterium sp. HM 42) | MIC (Fusobacterium; Fusobacterium sp. HM 57) | MIC (Fusobacterium; Fusobacterium sp. HM-758) | MIC (Bifidobacterium strains; Bifidobacterium breve HM-1120) | MIC (Lactobacillus strains; Lactobacillus jensenii HM-105) | MIC (Lactobacillus strains; Lactobacillus rhamnosus HM-106)
4 mg/L: MIC ([2]; Staphylococcus aureus strain NR 10129) | MIC ([2]; Staphylococcus aureus strain NR 10187) | MIC ([2]; Staphylococcus aureus strain NR 10188) | MIC ([2]; Staphylococcus aureus strain NR 10189) | MIC ([2]; Staphylococcus aureus strain NR 10191) | MIC ([2]; Staphylococcus aureus strain NR 10192) | MIC ([2]; Staphylococcus aureus strain NR 10193) | MIC ([2]; Staphylococcus aureus strain NR 10194) | MIC (Bacteroides Strains; B. fragilis HM709) | MIC (Bacteroides Strains; B. fragilis HM714) | MIC (Bifidobacterium strains; Bifidobacterium breve HM-411) | MIC (Bifidobacterium strains; Bifidobacterium breve HM-412) | MIC (Lactobacillus strains; Lactobacillus iners HM-126) | MIC (Lactobacillus strains; Lactobacillus sp. HM-228) | MIC (Lactobacillus strains; Lactobacillus vaginalis HM-405)
≦0.031 μg/ml: MIC ([3]; Lachnospiraceae sp. HM-7) | MIC ([3]; Lachnospiraceae sp. HM-768)
